Test results taken from patent US3989835A, “Method of using 6-substituted amino phenyl-2,3,5,6-tetra-hydro[2,1-b]thiazoles for controlling gastrointestinal nematodes” (American Cyanamid Company, priority 1974, dated 1976).
Structures can show the parent of a compound that is named as a salt.

Test system: Nematospiroides dubius
Assay: Anthelmintic efficacy against N. dubius in mice, single oral dose
Type: in vivo, Nematospiroides dubius (in albino female mice)
Details: for inhibition in vivo at 100 mg/kg: single oral dose 100 mg./Kg.; for inhibition in vivo at 5 mg/kg: single oral dose 5.0 mg./Kg.; for inhibition in vivo at 50 mg/kg: single oral dose 50 mg./Kg.; for inhibition in vivo at 20 mg/kg: single oral dose 20 mg./Kg.; for Approx. ED50 / ED50: as Base, single oral dose, mice, > indicates inactive at dose shown; for ED50: read-out: Approx. ED50
Procedure: Albino female mice are each inoculated with about 20 infectious larvae of Nematospiroides dubius. This nematode is a representative of the economical important trichostrongylis worms of ruminants and other hosts, and of nematodes in general. Twenty-two days after inoculation, groups of four randomly selected mice containing adult N. dubius are given single oral doses of test compounds dissolved or suspended in 0.4 ml. of water per 20 gram mouse. At 26 or 27 days after inoculation, treated mice and in each test four randomly selected groups of untreated mice are necropsied. The number of worms in the small intestine of each mouse are determined by microscopic examination. Average worm numbers for each treated group and for the untreated controls are computed and the percent efficacy determined by the customary formula:
(Average Worms in Control - Average Worms in Treated)/(Average Worms in Control) X 100.

[1] = Heligmosomoides polygyrus, po, molar-adjusted, read-out: Percent Nematospiroides Activity
[2] = Heligmosomoides polygyrus, po, single oral dose 10 mg./Kg., molar-adjusted, read-out: Percent Nematospiroides Activity

CC(=O)Nc1cccc(C2CN3CCSC3=N2)c1 (stereo not drawn) [H--N--CO--CH3 l-]
Percent Nematospiroides Activity (single oral dose 4.0 mg./Kg., molar-adjusted): 51%
Percent Nematospiroides Activity (single oral dose 10 mg./Kg., molar-adjusted): 100%

CS(=O)(=O)Nc1cccc(C2CN3CCSC3=N2)c1 (stereo not drawn) [H--N--SO2 CH3]
inhibition in vivo at 100 mg/kg [1]: 100%

CC(CO)Nc1cccc(C2CN3CCSC3=N2)c1 (stereo not drawn) [HN--CH(CH3)CH2 OH]
inhibition in vivo at 5 mg/kg [1]: 1%
inhibition in vivo at 10 mg/kg [2]: 1%
inhibition in vivo at 50 mg/kg [1]: 67%

c1ccc(CNc2cccc(C3CN4CCSC4=N3)c2)cc1 (stereo not drawn) [Table XII b1716]
inhibition in vivo at 5 mg/kg [1]: 56%
inhibition in vivo at 10 mg/kg [2]: 91%
inhibition in vivo at 20 mg/kg [1]: 95%

COc1ccc(CNc2cccc(C3CN4CCSC4=N3)c2)cc1 (stereo not drawn) [Table XII b1718]
inhibition in vivo at 10 mg/kg [2]: 40%
inhibition in vivo at 20 mg/kg [1]: 100%
inhibition in vivo at 50 mg/kg [1]: 100%
inhibition in vivo at 100 mg/kg [1]: 100%

O=C(Cc1ccccc1)Nc1cccc(C2CN3CCSC3=N2)c1 (stereo not drawn) [Table XII b1825]
inhibition in vivo at 2 mg/kg (Heligmosomoides polygyrus, po, single oral dose 2.0 mg./Kg., molar-adjusted, read-out: Percent Nematospiroides Activity): 44%
inhibition in vivo at 5 mg/kg [1]: 76%
inhibition in vivo at 10 mg/kg [2]: 95%

Nc1ccc(Br)c(C2CN3CCSC3=N2)c1 (stereo not drawn) [Table XIII b1902]
inhibition in vivo at 30 mg/kg (Heligmosomoides polygyrus, po, single oral dose 30 mg./Kg., molar-adjusted, read-out: Percent Nematospiroides Activity): 37%
inhibition in vivo at 60 mg/kg (Heligmosomoides polygyrus, po, single oral dose 60 mg./Kg., molar-adjusted, read-out: Percent Nematospiroides Activity): 97%

CC(=O)Nc1ccc(Br)c(C2CN3CCSC3=N2)c1 (stereo not drawn) [Table XIII b1903]
inhibition in vivo at 50 mg/kg [1]: 100%
inhibition in vivo at 100 mg/kg [1]: 100%

Nc1cccc(C2CN3CCSC3=N2)c1 (stereo not drawn) [d 2HCl NH2 meta, d-2,3,5,6-Tetrahydro-6-(m-aminophenyl)imidazo[2,1-b]thiazoleDihydrochloride]
Approx. ED50: 10 Mg./Kg.

Nc1ccc(C2CN3CCSC3=N2)cc1 (stereo not drawn) [d 2HCl NH2 para, reference compound]
Approx. ED50: > 20 Mg./Kg.

O=CNc1ccc(C2CN3CCSC3=N2)cc1 (stereo not drawn) [d Base NH--HCO para, reference compound]
Approx. ED50: > 40 Mg./Kg.

O=[N+]([O-])c1cccc(C2CN3CCSC3=N2)c1 (stereo not drawn) [d HCl NO2 meta, d-6-(m-nitrophenyl)-2,3,5,6-tetrahydroimidazo[2,1-b]thiazole hydrochloride, reference compound]
Approx. ED50 (hydrochloride): > 30 Mg./Kg.

O=[N+]([O-])c1ccc(C2CN3CCSC3=N2)cc1 (stereo not drawn) [d HCl NO2 para, reference compound]
Approx. ED50: > 200 Mg./Kg.

Nc1ccc(C2CN3CCSC3=N2)cc1 (stereo not drawn) [l 2HCl NH2 para, reference compound]
ED50 (Heligmosomoides polygyrus, po): > 10 mg/kg

CNc1ccc(C2CN3CCSC3=N2)cc1 (stereo not drawn) [l 2HCl NH--CH3 para, reference compound]
ED50 (Heligmosomoides polygyrus, po): > 50 mg/kg

O=CNc1ccc(C2CN3CCSC3=N2)cc1 (stereo not drawn) [l Base NH--HCO para, reference compound]
Approx. ED50: > 10 Mg./Kg.

O=[N+]([O-])c1cccc(C2CN3CCSC3=N2)c1 (stereo not drawn) [l HCl NO2 meta, l-6-(m-Nitrophenyl)-2,3,5,6-tetrahydroimidazo[2,1-b]thiazole hydrochloride, reference compound]
Approx. ED50 (hydrochloride): 12 Mg./Kg.

O=[N+]([O-])c1ccc(C2CN3CCSC3=N2)cc1 (stereo not drawn) [l HCl NO2 para, reference compound]
Approx. ED50: 40 Mg./Kg.
